Measurements published in patent US12509451B2, “Heteroaryl amide inhibitors of CD38” (NAPA THERAPEUTICS LTD., priority 2020, dated 2025).
Several values for one entry are separate records, joined by “and”; a condition that tells them apart may be missing. Identical values can stand only once.

Experiments:
[1] = target: T1, recombinant mouse CD38 Protein (Mus musculus, UniProt P56528); assay: Fluorescence-based NAD+ cyclase activity assay with mouse recombinant CD38 protein (Assay 4); format: biochemical; details: read-out: Assay 4 Arithmetic mean IC50
T1 construct: purchased R&D System
T1 sequence (P56528 1-304): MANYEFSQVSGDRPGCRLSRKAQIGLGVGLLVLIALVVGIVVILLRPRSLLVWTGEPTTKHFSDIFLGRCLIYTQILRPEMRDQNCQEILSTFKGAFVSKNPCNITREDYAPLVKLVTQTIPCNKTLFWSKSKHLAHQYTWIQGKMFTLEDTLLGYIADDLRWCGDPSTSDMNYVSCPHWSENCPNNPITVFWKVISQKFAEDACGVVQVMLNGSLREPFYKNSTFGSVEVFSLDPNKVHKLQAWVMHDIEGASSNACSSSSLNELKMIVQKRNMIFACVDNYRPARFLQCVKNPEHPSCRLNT
Procedure: This protocol was modified from de Oliveira et al. (2018) supra.
NAD+ cyclase activity of the […] recombinant CD38 protein treated with test compounds was measured using a fluorescence-based assay. Briefly, recombinant mouse CD38 Protein (R&D System) was resuspended in 44 μl/well of Sucrose-Tris Buffer (Sucrose 0.25 M, Tris pH 7.4 40 mM) and plated in a 96-well black plate (CORNING) at a density of 32 ng/well.
Each test compound was received in a powder state and dissolved in DMSO as a 25 mM stock solution. Each test compound was serially diluted in order to generate a dose-response curve. The dilution series of each test compound in DMSO was prepared at 50 times the concentrations to be assayed. Each test compound was diluted to generate a 5-fold dilution series of 8 concentrations from 100 μM to 32 nM in order to assay 8 final concentrations ranging from 2 μM to 0.64 nM. One μl of the 50× concentration compound series was added to each well of the plate containing 125 ng of protein in Sucrose-Tris buffer.
Each plate had the following intra plate controls: 3 wells containing cells treated with vehicle only (DMSO), 3 wells of cells treated with the reference compounds 78c at a final concentration of 500 nM and 2 wells containing only Sucrose-Tris buffer (used as a background value).
The reaction was started adding nicotinamide guanine dinucleotide (NGD+) (Sigma Aldrich) to reach a final concentration of 150 µM. The samples were excited at 337-15 nm and the emission of fluorescence was measured at 442-20 nm at 37° C. every minute for 1 hr in a Clariostar® microplate reader (BMG LABTECH). NAD+ cyclase activity was calculated as the slope of the linear portion of the fluorescence-time curve using the MARS data analysis software (BMG LABTECH). The data were uploaded in the Collaborative Drug Design (CDD) Software and for each compound the IC50 was calculated by the software. Each compound was tested in 3 independent experiments on 3 separate days to establish the reproducibility of the results. For each plate, the z-factor was also calculated as a plate quality using the CDD software.

[2] = target: T2, human CD38 enzyme in primary human M1 macrophages (Homo sapiens, UniProt P28907); assay: NAD+ hydrolase activity assay in primary human M1 macrophages; format: cell-based; details: primary human M1 macrophages (LPS stimulated)
T2 construct: The assay utilized whole primary human macrophages (from healthy donors); endogenous in cells; host or cells: primary human macrophages from healthy donors, LPS-stimulated (M1)
T2 sequence (P28907 1-300): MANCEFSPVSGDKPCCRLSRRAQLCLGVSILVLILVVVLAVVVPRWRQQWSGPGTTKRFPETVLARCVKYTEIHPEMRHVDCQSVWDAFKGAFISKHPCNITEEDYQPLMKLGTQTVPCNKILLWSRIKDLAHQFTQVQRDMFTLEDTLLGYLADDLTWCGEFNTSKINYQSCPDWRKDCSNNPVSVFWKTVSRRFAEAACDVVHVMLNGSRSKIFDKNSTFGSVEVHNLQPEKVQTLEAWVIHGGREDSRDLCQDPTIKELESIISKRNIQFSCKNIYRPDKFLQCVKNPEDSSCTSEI
Procedure: The in vitro potency of Compound 35 against the human CD38 enzyme was determined by a fluorescence-based NAD+ hydrolase activity assay using the NAD+ analog nicotinamide 1,N^6-etheno-adenine dinucleotide (εNAD+) as substrate. The assay utilized: 1) whole primary human CD4+ T cells (from healthy donors) activated with anti-CD3/CD28 antibodies and expressing human CD38; or II) whole primary human macrophages (from healthy donors) stimulated with LPS to polarize in a pro-inflammatory M1 state expressing human CD38. The cells were incubated in the presence of 8 different concentrations of Compound 35 for 10 minutes and the reaction was started adding the substrate εNAD+. The emission of fluorescence was measured at 410-20 nm at 37° C. every minute for 1 hr. The NAD+ hydrolase activity was calculated as the slope of the linear portion of the fluorescence-time curve and used to calculate the IC50 value.
(§1) The in vitro potency of Compound 32 against the human CD38 enzyme was determined by a fluorescence-based NAD+ hydrolase activity assay using the NAD+ analog nicotinamide 1,N6-etheno-adenine dinucleotide (εNAD+) as substrate. The assay utilized whole primary human macrophages (from healthy donors) stimulated with LPS to polarize in a pro-inflammatory M1 state expressing human CD38. […] The emission of fluorescence was measured at 410-20 nm at 37° C. every minute for 1 hr. The NAD+ hydrolase activity was calculated as the slope of the linear portion of the fluorescence-time curve and used to calculate the IC50 value.
as §1, with “39” for “32”, “substrate.” for “substrate. The assay utilized whole primary human macrophages (from healthy donors) stimulated with LPS to polarize in a pro-inflammatory M1 state expressing human CD38.”

SMILES	IC50 [1]	IC50 [2]
CN(C)CCOc1cc(C(=O)Nc2ccnc(C(F)(F)F)c2)nc(-n2ccnc2)c1 [Compound 33]	1 to 50 nM	
COc1cc(C(=O)Nc2ccnc(C(F)(F)F)c2)nc(-n2ccnc2)c1 [Compound 35, 6-(1H-imidazol-1-yl)-4-methoxy-N-(2-(trifluoromethyl)pyridin-4-yl)picolinamide]	1 to 50 nM	2.25 nM
COc1cc(C(=O)Nc2ccnc(C(F)(F)F)c2)nc(-n2ccnc2)n1 [Compound 37, 2-(1H-imidazol-1-yl)-6-methoxy-N-(2-(trifluoromethyl)pyridin-4-yl)pyrimidine-4-carboxamide]	51 to 1000 nM	
O=C(Nc1ccnc(C(F)(F)F)c1)c1cc(OC2CC2)cc(-n2ccnc2)n1 [Compound 32, 4-cyclopropoxy-6-(1H-imidazol-1-yl)-N-(2-(trifluoromethyl)pyridin-4-yl)picolinamide]		3.5 nM and 3.49 nM
CC1(Oc2cc(C(=O)Nc3ccnc(C(F)(F)F)c3)nc(-n3ccnc3)c2)COC1 [Compound 34, 6-(1H-imidazol-1-yl)-4-((3-methyloxetan-3-yl)oxy)-N-(2-(trifluoromethyl)pyridin-4-yl)picolinamide]	51 to 1000 nM	

Now from value to molecule:

IC50 [1]	IC50 [2]	SMILES
1 to 50 nM		O=C(Nc1ccnc(C(F)(F)F)c1)c1cc(C2CC2)nc(-n2ccnc2)n1 [Compound 51, 6-cyclopropyl-2-(1H-imidazol-1-yl)-N-(2-(trifluoromethyl)pyridin-4-yl)pyrimidine-4-carboxamide]
51 to 1000 nM		O=C(Nc1ccnc(C(F)(F)F)c1)c1cc(OC2CC2)nc(-n2ccnc2)n1 [Compound 40]
51 to 1000 nM		CCOc1cc(C(=O)Nc2ccnc(C(F)(F)F)c2)nc(-n2ccnc2)n1 [Compound 38]
1 to 50 nM	3.9 nM and 3.92 nM	COCCOc1cc(C(=O)Nc2ccnc(C(F)(F)F)c2)nc(-n2ccnc2)n1 [Compound 39, 2-(1H-imidazol-1-yl)-6-(2-methoxyethoxy)-N-(2-(trifluoromethyl)pyridin-4-yl)pyrimidine-4-carboxamide]
